In patent EP0908457B1, “3-(1,2-benzisothiazol- and isoxazol-5-Y1)-2,4(1H,3H)-pyrimidinedione or thione and 3-(1,2-benzisothiazol- and isoxazol-5-y1)-4(3H)-pyrimidinone or thione herbicidal agents” (BASF AKTIENGESELLSCHAFT, priority 1997, dated 1999):

Legend:
Cyperus iria [1] = assay: Postemergence weed control under flooded paddy conditions, CYPIR (Rice Flatsedge); type: in vivo; details: rated three to four weeks after treatment
[2] = tested on: Cyperus serotinus, Rottb.; assay: Preemergence weed control under flooded paddy conditions, CYPSE (Flatsedge); type: in vivo; details: preemergence, rated three to four weeks after treatment; further: meaning of each grade not given here
[3] = tested on: Echinochloa oryzoides (Ard.) Fritsch.; assay: Preemergence weed control under flooded paddy conditions, ECHORC (Watergrass (Calif.)); type: in vivo; details: preemergence, flooded paddy, rated three to four weeks after treatment; further: meaning of each grade not given here
Sagittaria pygmaea, L. [4] = assay: Preemergence weed control under flooded paddy conditions, SAGPY (Arrowhead (Pygmaea)); type: in vivo; details: preemergence, flooded paddy, rated three to four weeks after treatment; further: meaning of each grade not given here
Cyperus iria [5] = assay: Preemergence weed control under flooded paddy conditions, CYPIR (Rice Flatsedge); type: in vivo; details: preemergence, flooded paddy, rated three to four weeks after treatment; further: meaning of each grade not given here
Sagittaria pygmaea, L. [6] = assay: Postemergence weed control under flooded paddy conditions, SAGPY (Arrowhead (Pygmaea)); type: in vivo; details: rated three to four weeks after treatment
[7] = tested on: Monochoria vaginalis, Presl.; assay: Postemergence weed control under flooded paddy conditions, MOOVA (Monochoria); type: in vivo; details: rated three to four weeks after treatment
[8] = tested on: Echinochloa oryzoides (Ard.) Fritsch.; assay: Postemergence weed control under flooded paddy conditions, ECHORC (Watergrass (Calif.)); type: in vivo; details: rated three to four weeks after treatment
[9] = tested on: Cyperus serotinus, Rottb.; assay: Postemergence weed control under flooded paddy conditions, CYPSE (Flatsedge); type: in vivo; details: rated three to four weeks after treatment
[10] = tested on: Oryza sativa, (L.) Tebonnet; assay: Rice tolerance to post-transplant applications under flooded paddy conditions (Example 188), ORYSAT (Rice, Tebonnet); details: rated three to four weeks after treatment
[11] = tested on: Oryza sativa, (L.) Tebonnet; assay: Rice tolerance to post-transplant applications under flooded paddy conditions (Example 187), ORYSAT (Rice, Tebonnet); details: rated three to four weeks after treatment; further: meaning of each grade not given here
[12] = tested on: Monochoria vaginalis, Presl.; assay: Preemergence weed control under flooded paddy conditions, MOOVA (Monochoria); type: in vivo; details: preemergence, flooded paddy, rated three to four weeks after treatment; further: meaning of each grade not given here

`CC(C)S(=O)(=O)NC(=O)c1nsc2ccc(-n3c(=O)cc(C(F)(F)F)n(C)c3=O)cc12` [Example 362, 1,2-Benzisothiazole-3-carboxamide, 5-[3,6-dihydro-3-methyl-2,6-dioxo-4-(trifluoromethyl)-1(2H)-pyrimidinyl]-N-(isopropylsulfonyl)-] was tested. Which “herbicidal effect rating, CYPIR” value (Cyperus iria [1]; Rate 0.0320 kg/ha) did it give?
Its value is 4.0.

And the “herbicidal effect rating, CYPIR” value (Cyperus iria [1]; Rate 0.0620 kg/ha)?
The value was 7.0.

What about the “herbicidal effect rating, CYPIR” value (Cyperus iria [1]; Rate 0.1250 kg/ha) of the same molecule?
Its value is 8.0.

What about the “herbicidal effect rating, CYPIR” value (Cyperus iria [1]; Rate 0.2500 kg/ha) of the same molecule?
The value was 4.0.

What about the “herbicidal effect rating, CYPSE” value ([2]; Rate 0.0320 kg/ha) of the same molecule?
The value was 6.0.

And the “herbicidal effect rating, CYPSE” value ([2]; Rate 0.0620 kg/ha)?
Its value is 9.0.

And the “herbicidal effect rating, CYPSE” value ([2]; Rate 0.1250 kg/ha)?
The value was 9.0.

And the “herbicidal effect rating, CYPSE” value ([2]; Rate 0.2500 kg/ha)?
The value was 9.0.

And the “herbicidal effect rating, CYPSE” value ([2]; Rate 0.5000 kg/ha)?
The value was 9.0.

And the “herbicidal effect rating, ECHORC” value ([3]; Rate 0.0320 kg/ha)?
The value was 4.0.

And the “herbicidal effect rating, ECHORC” value ([3]; Rate 0.0620 kg/ha)?
Its value is 7.0.

And the “herbicidal effect rating, ECHORC” value ([3]; Rate 0.1250 kg/ha)?
The value was 7.0.

What about the “herbicidal effect rating, ECHORC” value ([3]; Rate 0.2500 kg/ha) of the same molecule?
The value was 9.0.

What about the “herbicidal effect rating, ECHORC” value ([3]; Rate 0.5000 kg/ha) of the same molecule?
The value was 9.0.

What about the “herbicidal effect rating, SAGPY” value (Sagittaria pygmaea, L. [4]; Rate 0.0320 kg/ha) of the same molecule?
Its value is 9.0.

And the “herbicidal effect rating, SAGPY” value (Sagittaria pygmaea, L. [4]; Rate 0.0620 kg/ha)?
Its value is 9.0.

What about the “herbicidal effect rating, SAGPY” value (Sagittaria pygmaea, L. [4]; Rate 0.1250 kg/ha) of the same molecule?
The value was 9.0.

And the “herbicidal effect rating, SAGPY” value (Sagittaria pygmaea, L. [4]; Rate 0.2500 kg/ha)?
The value was 9.0.

What about the “herbicidal effect rating, SAGPY” value (Sagittaria pygmaea, L. [4]; Rate 0.5000 kg/ha) of the same molecule?
The value was 9.0.

What about the “herbicidal effect rating, CYPIR” value (Cyperus iria [5]; Rate 0.0320 kg/ha) of the same molecule?
The value was 3.0.

What about the “herbicidal effect rating, CYPIR” value (Cyperus iria [5]; Rate 0.0620 kg/ha) of the same molecule?
The value was 5.0.

What about the “herbicidal effect rating, CYPIR” value (Cyperus iria [5]; Rate 0.1250 kg/ha) of the same molecule?
The value was 5.0.

What about the “herbicidal effect rating, CYPIR” value (Cyperus iria [5]; Rate 0.2500 kg/ha) of the same molecule?
The value was 7.0.

What about the “herbicidal effect rating, CYPIR” value (Cyperus iria [5]; Rate 0.5000 kg/ha) of the same molecule?
Its value is 9.0.

And the “herbicidal effect rating, SAGPY” value (Sagittaria pygmaea, L. [6]; Rate 0.0320 kg/ha)?
Its value is 0.0.

And the “herbicidal effect rating, SAGPY” value (Sagittaria pygmaea, L. [6]; Rate 0.0620 kg/ha)?
Its value is 0.0.

And the “herbicidal effect rating, SAGPY” value (Sagittaria pygmaea, L. [6]; Rate 0.1250 kg/ha)?
The value was 4.0.

And the “herbicidal effect rating, SAGPY” value (Sagittaria pygmaea, L. [6]; Rate 0.2500 kg/ha)?
Its value is 8.0.

And the “herbicidal effect rating, MOOVA” value ([7]; Rate 0.0320 kg/ha)?
Its value is 9.0.

And the “herbicidal effect rating, MOOVA” value ([7]; Rate 0.0620 kg/ha)?
Its value is 9.0.

What about the “herbicidal effect rating, MOOVA” value ([7]; Rate 0.1250 kg/ha) of the same molecule?
Its value is 9.0.

And the “herbicidal effect rating, MOOVA” value ([7]; Rate 0.2500 kg/ha)?
The value was 9.0.

What about the “herbicidal effect rating, ECHORC” value ([8]; Rate 0.0320 kg/ha) of the same molecule?
The value was 0.0.

And the “herbicidal effect rating, ECHORC” value ([8]; Rate 0.0620 kg/ha)?
The value was 2.0.

And the “herbicidal effect rating, ECHORC” value ([8]; Rate 0.1250 kg/ha)?
The value was 7.0.

And the “herbicidal effect rating, ECHORC” value ([8]; Rate 0.2500 kg/ha)?
Its value is 9.0.

What about the “herbicidal effect rating, CYPSE” value ([9]; Rate 0.0320 kg/ha) of the same molecule?
The value was 0.0.

And the “herbicidal effect rating, CYPSE” value ([9]; Rate 0.0620 kg/ha)?
Its value is 9.0.

And the “herbicidal effect rating, CYPSE” value ([9]; Rate 0.1250 kg/ha)?
Its value is 9.0.

What about the “herbicidal effect rating, CYPSE” value ([9]; Rate 0.2500 kg/ha) of the same molecule?
The value was 9.0.

And the “herbicidal effect rating, ORYSAT (rice tolerance)” value (“herbicidal effect rating, ORYSAT” for short) ([10]; Rate 0.0320 kg/ha)?
The value was 3.0.

What about the “herbicidal effect rating, ORYSAT” value ([10]; Rate 0.0620 kg/ha) of the same molecule?
The value was 3.0.

What about the “herbicidal effect rating, ORYSAT” value ([10]; Rate 0.1250 kg/ha) of the same molecule?
Its value is 3.0.

And the “herbicidal effect rating, ORYSAT” value ([10]; Rate 0.2500 kg/ha)?
Its value is 6.0.

And the “herbicidal effect rating ORYSAT” value ([11]; Rate 0.0320 kg/ha)?
Its value is 4.0.

What about the “herbicidal effect rating ORYSAT” value ([11]; Rate 0.0620 kg/ha) of the same molecule?
The value was 4.0.

What about the “herbicidal effect rating ORYSAT” value ([11]; Rate 0.1250 kg/ha) of the same molecule?
Its value is 4.0.

And the “herbicidal effect rating ORYSAT” value ([11]; Rate 0.2500 kg/ha)?
The value was 6.0.

What about the “herbicidal effect rating ORYSAT” value ([11]; Rate 0.5000 kg/ha) of the same molecule?
Its value is 8.0.

What about the “herbicidal effect rating, MOOVA” value ([12]; Rate 0.0320 kg/ha) of the same molecule?
Its value is 9.0.

What about the “herbicidal effect rating, MOOVA” value ([12]; Rate 0.0620 kg/ha) of the same molecule?
The value was 9.0.

What about the “herbicidal effect rating, MOOVA” value ([12]; Rate 0.1250 kg/ha) of the same molecule?
The value was 9.0.

And the “herbicidal effect rating, MOOVA” value ([12]; Rate 0.2500 kg/ha)?
The value was 9.0.

What about the “herbicidal effect rating, MOOVA” value ([12]; Rate 0.5000 kg/ha) of the same molecule?
The value was 9.0.
